# According to US20080153849A1, “Process for the Preparation of Crystalline (6Rrs)-N(5)-Formyl-5,6,7,8-Tetrahydrofolic Acid” (priority 2004, published 2008):
# Experiment: Storage stability of the solid in a refrigerator (HPLC assay and purity)
# Format: physicochemical
# Details: for Assay (HPLC) / Purity (HPLC): solid stored at 2° C. to 8° C.
# Method: This solid was stored at a temperature from 2° C. to 8° C. in a refrigerator. Thereby the following stability dates were obtained for this solid: […]
Structure (SMILES),Assay (HPLC) (time 0 months) [%],Purity (HPLC) (time 0 months) [%],Assay (HPLC) (time 3 months) [%],Purity (HPLC) (time 3 months) [%],Assay (HPLC) (time 6 months) [%],Purity (HPLC) (time 6 months) [%],Assay (HPLC) (time 9 months) [%],Purity (HPLC) (time 9 months) [%],Assay (HPLC) (time 12 months) [%],Purity (HPLC) (time 12 months) [%.],Stability of the solid compared with crystalline (6RS)-folinic acid (general statement in words),Assay (HPLC) (time 1 month) [%],Purity (HPLC) (time 1 month) [%],Assay (HPLC) (time 2 months) [%],Purity (HPLC) (time 2 months) [%]
"Nc1nc2c(c(=O)[nH]1)N(C=O)C(CNc1ccc(C(=O)N[C@@H](CCC(=O)O)C(=O)O)cc1)CN2 (mixture of isomers) [Example 1, (6RS)-N(5)-formyl-5,6,7,8-tetrahydrofolic acid]",99.4,99.78,99.0,99.79,99.1,99.75,100.2,99.82,99.9,99.79,–,–,–,–,–
"Nc1nc2c(c(=O)[nH]1)N(C=O)[C@@H](CNc1ccc(C(=O)N[C@@H](CCC(=O)O)C(=O)O)cc1)CN2 [Example 2, (6S)-N(5)-formyl-5,6,7,8-tetrahydrofolic acid]",99.0,99.2,98.9,98.9,98.1,98.4,–,–,97.8,97.2,stability comparable with the crystalline (6RS)-folinic acid,98.5,99.0,98.1,98.9
